{"source": "patent US20150209354A1", "about": "“CASEIN KINASE 1 INHIBITORS FOR THE TREATMENT OF B-CELL CHRONIC LYMPHOCYTIC|LEUKEMIA” (MASARYKOVA UNIVERZITA, priority 2012, published 2015)", "key": {"[1]": {"test_system": "MEC1 cells", "test": "Transwell migration of MEC1 cells to chemokines CCL19 and CCL21", "type": "cell-based, human", "details": "D4476 100 μM overnight; CCL19 and CCL21 200 ng/ml; vs DMSO control", "procedure": "FIG. 1: Migration of MEC1 cells which represents an in-vitro CLL model was investigated in the presence of chemokines CCL19 and CCL21 (200 ng/ml) using Transwell migration chamber. The rate of migration is expressed as a migration index. The MEC1 migration triggered by the chemokines CCL21 and CCL19 is blocked by CK1 inhibitors—D4476 (CK1 inh. I; 100 μM) and PF670462 (CK1 inh. II; 50 μM). The values in the FIGS. 1A and 1B represent the average and the standard error. Statistical significance was tested using One-way ANOVA and Tukey post-hoc test (*p<0.05, **p<0.01, ***p<0.001).\nIn this example, the MEC1 cell line was used, which is a well-defined cell line obtained from a CLL patient in a pro-lymphocytic transformation. The MEC1 line is used as a transplantation model of CLL. […]\n(§1) Into the upper insert of HTS Transwell® 96-well plates (Corning Incorporated, Mexico) with polycarbonate membranes with the pore size of 5.0 μm, 0.5×10^6 MEC1 cells were seeded. […] The migration to chemokine was then analyzed using the Coulter Counter instrument (model FN, Coulter Electronics, Fla., USA). The migration index was calculated as the number of cells (treated or non-treated) migrating to the chemokine divided by the number of cells migrating only to the control medium."}, "[2]": {"test_system": "MEC1 cells", "test": "Chemokine-controlled transendothelial invasion of MEC1 cells through HUVEC layer (Transwell)", "type": "cell-based, human", "details": "D4476 100 μM overnight, HUVEC-covered Transwell", "procedure": "FIG. 2: Transendothelial invasiveness of the MEC1 cells was tested in the Transwell migration chamber in an arrangement where the upper chamber was covered with one layer of HUVEC endothelial cells. The rate of invasiveness (determined as the migration index) of the MEC1 cells was analyzed in the presence of the chemokine CCL19, Wnt5a, or in combination of both substances. The positive effect of CCL19 to the transendothelial migration of MEC1 was inhibited by addition of D4476 (CK1 inh. I). Statistical significance was tested using One-way ANOVA test and Tukey post-hoc test (***p<0.001). Each experiment was independently repeated three-times.\nIn the complex environment of the human body, cells react to the attractants and have to pass through extra-cellular matrix or endothelial barrier, which is a process known as invasion. […]\nas §1, with “μm, covered with HUVEC (human umbilical vein endothelial cells monolayer),” for “μm,”"}, "[3]": {"test_system": "primary CLL cells", "test": "Migration of pre-treated primary CLL cells into tissues of transplanted NSG mice (FACS of calcein-positive cells)", "type": "in vivo", "details": "cells pre-treated 20 hours with 100 μM D4476; intraperitoneal injection; tissues analysed after 24 hours; vs DMSO", "procedure": "(§2) FIG. 3: CK1 controls the migration of CLL cells in vivo. (A) Layout of the experiment: CLL cells were obtained by purification from the samples of fresh blood from patients, stimulated and stained in vitro using green calcein. They were subsequently intraperitoneally injected to NSG mice. After 24 hours the murine tissues were examined for the presence of calcein-positive CLL cells using flow-cytometry (refer to the G1 cut-out in the typical dot plot distribution). (B) The rate of apoptosis in primary CLL cells after adding DMSO/D4476 (CK1 inh. I) was determined by the analysis of membrane potential of mitochondria using flow-cytometry while using tetramethylrhodamine ethyl ester (TMRE) stained with green calcein dye. […] The charts show the ratio of the CLL cells (the quantity of positive cells/total quantity of cells in the organ) treated by DMSO or D4476 (CK1 inh. I) that were obtained from the spleen (Ci), liver (Cii), and bone marrow (Ciii) of transplanted mice. […]\n(§3) Freshly isolated human CLL lymphocytes (25×10^6 from the patient) were pre-treated for 20 hours with a CK1 inhibitor (100 μM, D4476, Calbiochem), and dimethylsulfoxide (DMSO, Sigma-Aldrich) as control. […] Samples of spleen, liver, and femoral bone marrow of mice were taken 24 hours after the injection and analyzed. Migration of calcein-positive CLL cells to these tissues was determined by FACS analysis (FACScalibur)."}, "[4]": {"test_system": "primary CLL cells", "test": "Rate of apoptosis of primary CLL cells by mitochondrial membrane potential (TMRE/calcein flow cytometry)", "type": "cell-based, human", "details": "100 μM D4476, 20 hours pre-treatment; TMRE and calcein staining; vs DMSO", "procedure": "as §2\nas §3, with “(FACScalibur). […]” for “(FACScalibur).”"}}, "note": "Entries after “also recorded” stand apart in the source; their conditions may differ.", "data": [{"compound": "NC(=O)c1ccc(-c2nc(-c3ccc4c(c3)OCCO4)c(-c3ccccn3)[nH]2)cc1", "note": "[D4476]", "values": [{"measurement": "MEC1 migration (migration index) triggered by the chemokines CCL21 and CCL19", "setting": "[1]", "result": "blocked"}, {"measurement": "CCL19-induced transendothelial migration (invasiveness, migration index) of MEC1 cells", "setting": "[2]", "result": "inhibited"}, {"measurement": "migration of CLL cells to the spleen, liver and bone marrow", "setting": "[3]", "result": "reduced"}, {"measurement": "rate of apoptosis in primary CLL cells", "setting": "[4]", "result": "does not alter the rate of apoptosis; also recorded: without an increase of cell apoptosis being detected"}]}]}
